In US11873291B2, “Quinoline cGAS antagonist compounds” (ImmuneSensor Therapeutics, Inc., priority 2020, dated 2024) one finds IC50 data, which are given here for 48 molecules.

Bounds are passed on as bounds.

In assay [1] the target is T1, recombinant human cGAS (aa147-522) (Homo sapiens, UniProt Q8N884).
T1 construct: recombinant human cGAS (aa147-522); His6-SUMO (cleaved yes); made in house; host or cells: E. coli BL21/pLys
Description: In vitro inhibition assay of cGAS activity (ATP consumption, KinaseGlo Max). Format: biochemical. The settings on record: Table 3, read-out: cGAS Inhibition Results IC50. Summed up:
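IC50 came from plotting % ATP consumption against log compound concentration, with leftover ATP detected by KinaseGlo Max chemiluminescence. Reactions ran 20 min at 37 °C with 1.5 μg/mL human cGAS (aa147-522), 6.6 μM ATP, 0.1 mM GTP and 0.01 mg/mL DNA at pH 7.5.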

For assay [2], the system named is cGAS activity in Reporter THP1 cell line. As to the kind of experiment: Cellular assay to measure cGAS activity: ISRE-Gaussia luciferase reporter THP1 cells transfected with ISD. The settings on record: Homo sapiens, THP-1, Table 4, Gaussia luciferase. Format: cell-based. Summed up: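 THP1 ISRE-Gaussia luciferase reporter cells (0.3×10^6/well) pre-incubated 5 min with compound serial dilutions, then lipofectamine-transfected with 2 μg/mL ISD (45 bp DNA) or mock. Secreted luciferase read 16 h later with 1 μM coelenterazine at pH 6.5; IC50 from fold increase over mock. Specificity counter-screen used 2 μg/mL poly(I:C) or Sendai virus 50 Unit/mL.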
(In general: Reporter assays use an easily measured gene product as a stand-in for the process of interest.)

T1 sequence (Q8N884 147-522): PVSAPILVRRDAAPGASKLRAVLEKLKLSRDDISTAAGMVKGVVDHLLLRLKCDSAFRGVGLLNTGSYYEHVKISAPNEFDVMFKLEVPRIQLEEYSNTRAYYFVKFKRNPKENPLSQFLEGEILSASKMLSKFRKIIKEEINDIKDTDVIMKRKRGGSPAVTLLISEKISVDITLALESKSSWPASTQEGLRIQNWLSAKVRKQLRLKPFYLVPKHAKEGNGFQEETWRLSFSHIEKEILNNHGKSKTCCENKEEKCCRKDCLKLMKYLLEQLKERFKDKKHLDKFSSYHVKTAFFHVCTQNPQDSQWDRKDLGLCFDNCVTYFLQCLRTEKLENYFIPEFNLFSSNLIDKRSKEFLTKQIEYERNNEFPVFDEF

As for `O=C(O)CCOCCC[C@@H]1CCCN1c1cc(-n2ccnc2)c2ccc(Cl)c(Cl)c2n1` [I-677], the IC50 in assay [1] and in assay [2] was below 2000 nM throughout.
As for `OCCCOCC[C@@H]1CCCN1c1cc(-n2ccnc2)c2ccc(Cl)c(Cl)c2n1` [I-678], the IC50 was below 2000 nM in assay [1] and 2000 to 10000 nM in assay [2].
Taken in the same sequence, the figures for `O=C(O)CC[C@@H]1CCCN1c1cc(-n2ccnc2)c2ccc(Cl)c(Cl)c2n1` [I-679] were below 2000 nM and 2000 to 10000 nM.
For `COC(=O)CC[C@@H]1CCCN1c1cc(-n2ccnc2)c2ccc(Cl)c(Cl)c2n1` [I-680], the IC50 in assay [1] was in the range of 2000 to 30000 nM; in assay [2], 2000 to 10000 nM.
Taken in the same sequence, the figures for `COC(=O)CCC[C@@H]1CCCN1c1cc(-n2ccnc2)c2ccc(Cl)c(Cl)c2n1` [I-681] were 2000 to 30000 nM and below 2000 nM.
On to `O=C(O)CCC[C@@H]1CCCN1c1cc(-n2ccnc2)c2ccc(Cl)c(Cl)c2n1` [I-682], for which the IC50 in assay [1] and in assay [2] was below 2000 nM throughout.
With `O=C(O)CCCC[C@@H]1CCCN1c1cc(-n2ccnc2)c2ccc(Cl)c(Cl)c2n1` [I-683], the IC50 in assay [1] and in assay [2] was below 2000 nM in each case.
As for `O=C(O)CCCC[C@@H]1CCCN1c1cc(-c2cn[nH]c2)c2ccc(Cl)c(Cl)c2n1` [I-684], the IC50 in assay [1] and in assay [2] was below 2000 nM in each case.
In the case of `O=C(O)/C=C/C[C@@H]1CCCN1c1cc(-n2ccnc2)c2ccc(Cl)c(Cl)c2n1` [I-685], the IC50 in assay [1] and in assay [2] was below 2000 nM in each case.
For `COC(=O)/C=C/C[C@@H]1CCCN1c1cc(-n2ccnc2)c2ccc(Cl)c(Cl)c2n1` [I-686], the results for the IC50 in assay [1] and in assay [2] were 2000 to 30000 nM and below 2000 nM, respectively.
In the case of `COC(=O)/C=C/[C@@H]1CCCN1c1cc(-n2ccnc2)c2ccc(Cl)c(Cl)c2n1` [I-687], the IC50 in assay [1] is 2000 to 30000 nM; in assay [2], above 10000 nM.
In the same order, the values of `O=C(O)CCOC[C@@H]1CCN1c1cc(-n2ccnc2)c2ccc(Cl)c(Cl)c2n1` [I-688] are below 2000 nM and below 2000 nM.
Consider `O=C(O)CCOCC1CN(c2cc(-n3ccnc3)c3ccc(Cl)c(Cl)c3n2)C1` [I-689], for which the IC50 in assay [1] was below 2000 nM; in assay [2], above 10000 nM.
For `O=C(O)CCCCCNc1cc(-n2ccnc2)c2ccc(Cl)c(Cl)c2n1` [I-690], the IC50 in assay [1] and in assay [2] was below 2000 nM each time.
Turning to `CN(CCCCCC(=O)O)c1cc(-n2ccnc2)c2ccc(Cl)c(Cl)c2n1` [I-691], the IC50 in assay [1] and in assay [2] was below 2000 nM each time.
Consider `CN(CCCOCCC(=O)O)c1cc(-n2ccnc2)c2ccc(Cl)c(Cl)c2n1` [I-692], for which the IC50 in assay [1] and in assay [2] was below 2000 nM throughout.
Regarding `O=C(O)CCOCCNc1cc(-n2ccnc2)c2ccc(Cl)c(Cl)c2n1` [I-693], the IC50 is below 2000 nM in assay [1] and above 10000 nM in assay [2].
In the same order, the values of `CN(CCOCCC(=O)O)c1cc(-n2ccnc2)c2ccc(Cl)c(Cl)c2n1` [I-694] are below 2000 nM and below 2000 nM.
In the same order, the values of `O=C(O)CCOCC(Cc1ccccc1)Nc1cc(-n2ccnc2)c2ccc(Cl)c(Cl)c2n1` (stereo not drawn) [I-695] are 2000 to 30000 nM and 2000 to 10000 nM.
Taken in the same sequence, the figures for `C[C@@]1(COCCC(=O)O)CCCN1c1cc(-n2ccnc2)c2ccc(Cl)c(Cl)c2n1` [I-696] were below 2000 nM and below 2000 nM.
With `O=C(O)CCOC[C@@H]1[C@@H](O)CCN1c1cc(-n2ccnc2)c2ccc(Cl)c(Cl)c2n1` [I-698], the IC50 in assay [1] was below 2000 nM; in assay [2] it was above 10000 nM.
In the same order, the values of `O=C(O)CCOC[C@@H]1CC(F)(F)CN1c1cc(-n2ccnc2)c2ccc(Cl)c(Cl)c2n1` [I-699] are below 2000 nM and below 2000 nM.
In the same order, the values of `COC(=O)C(F)COC[C@@H]1CCCN1c1cc(-n2ccnc2)c2ccc(Cl)c(Cl)c2n1` (stereo partly drawn) [I-700] are below 2000 nM and 2000 to 10000 nM.
As to `COC(=O)CCOC[C@@H]1[C@@H](O)CCN1c1cc(-n2ccnc2)c2ccc(Cl)c(Cl)c2n1` [I-701], the IC50 is below 2000 nM in assay [1] and 2000 to 10000 nM in assay [2].
In the same order, the values of `O=C(O)CCOC[C@@H]1C[C@H](O)CN1c1cc(-n2ccnc2)c2ccc(Cl)c(Cl)c2n1` [I-702] are below 2000 nM and 2000 to 10000 nM.
With `O=C(O)CCOC[C@@H]1C[C@H](F)CN1c1cc(-n2ccnc2)c2ccc(Cl)c(Cl)c2n1` [I-705], the IC50 in assay [1] and in assay [2] was below 2000 nM in each case.
Consider `O=C(O)COC[C@@H]1C[C@H](F)CN1c1cc(-n2ccnc2)c2ccc(Cl)c(Cl)c2n1` [I-706], for which the IC50 in assay [1] and in assay [2] was below 2000 nM each time.
On to `O=C(O)CCOC[C@@H]1C[C@@H]2C[C@@H]2N1c1cc(-n2ccnc2)c2ccc(Cl)c(Cl)c2n1` [I-707], for which the IC50 in assay [1] and in assay [2] was below 2000 nM in each case.
Consider `C[C@H]1C[C@@H](COCCC(=O)O)N(c2cc(-n3ccnc3)c3ccc(Cl)c(Cl)c3n2)C1` [I-708], for which the IC50 in assay [1] and in assay [2] was below 2000 nM throughout.
Turning to `O=C(O)CCOC[C@@H]1CC2(CC2)CN1c1cc(-n2ccnc2)c2ccc(Cl)c(Cl)c2n1` [I-709], the IC50 in assay [1] and in assay [2] was below 2000 nM throughout.
Turning to `O=C(O)CCOC[C@@H]1[C@H]2C[C@H]2CN1c1cc(-n2ccnc2)c2ccc(Cl)c(Cl)c2n1` [I-710], the IC50 in assay [1] was below 2000 nM; in assay [2] it was 2000 to 10000 nM.
In the same order, the values of `CO[C@@H]1C[C@@H](COCCC(=O)O)N(c2cc(-n3ccnc3)c3ccc(Cl)c(Cl)c3n2)C1` [I-711] are below 2000 nM and below 2000 nM.
In the same order, the values of `O=C(O)CCOC[C@@H]1C[C@@H](OCc2ccccc2)CN1c1cc(-n2ccnc2)c2ccc(Cl)c(Cl)c2n1` [I-712] are below 2000 nM and below 2000 nM.
Taken in the same sequence, the figures for `O=C(O)CCOC[C@@H]1C[C@H](Oc2ccccc2)CN1c1cc(-n2ccnc2)c2ccc(Cl)c(Cl)c2n1` [I-713] were below 2000 nM and below 2000 nM.
With `O=C(O)CCOCC[C@@H]1CC[C@@H](C(=O)O)N1c1cc(-n2ccnc2)c2ccc(Cl)c(Cl)c2n1` [I-714, (2S,5S)-5-(2-(2-carboxyethoxy)ethyl)-1-(7,8-dichloro-4-(1H-imidazol-1-yl)quinolin-2-yl)pyrrolidine-2-carboxylic acid], the results for the IC50 in assay [1] and in assay [2] were below 2000 nM and 2000 to 10000 nM, respectively.
Taken in the same sequence, the figures for `O=C(O)COCC[C@@H]1CC[C@@H](C(=O)O)N1c1cc(-n2ccnc2)c2ccc(Cl)c(Cl)c2n1` [I-715, (2S,5S)-5-(2-(carboxymethoxy)ethyl)-1-(7,8-dichloro-4-(1H-imidazol-1-yl)quinolin-2-yl)pyrrolidine-2-carboxylic acid] were below 2000 nM and above 10000 nM.
Taken in the same sequence, the figures for `O=C(O)C(F)COC[C@@H]1CCCN1c1cc(-n2ccnc2)c2ccc(Cl)c(Cl)c2n1` (stereo partly drawn) [I-716, 3-(((S)-1-(7,8-dichloro-4-(1H-imidazol-1-yl)quinolin-2-yl)pyrrolidin-2-yl)methoxy)-2-fluoropropanoic acid] were below 2000 nM and above 10000 nM.
On to `CC(CC(=O)O)OC[C@@H]1CCCN1c1cc(-n2ccnc2)c2ccc(Cl)c(Cl)c2n1` (stereo partly drawn) [I-717], for which the IC50 in assay [1] and in assay [2] was below 2000 nM in each case.
`COC(=O)CC(C)OC[C@@H]1CCCN1c1cc(-n2ccnc2)c2ccc(Cl)c(Cl)c2n1` (stereo partly drawn) [I-718]: the IC50 in assay [1] is 2000 to 30000 nM; in assay [2], below 2000 nM.
Consider `CC(COC[C@@H]1CCCN1c1cc(-n2ccnc2)c2ccc(Cl)c(Cl)c2n1)C(=O)O` (stereo partly drawn) [I-719], for which the IC50 in assay [1] and in assay [2] was below 2000 nM each time.
`COC(=O)C(C)COC[C@@H]1CCCN1c1cc(-n2ccnc2)c2ccc(Cl)c(Cl)c2n1` (stereo partly drawn) [I-720]: the IC50 in assay [1] was 2000 to 30000 nM; in assay [2] it was below 2000 nM.
Taken in the same sequence, the figures for `O=C(O)CCO[C@@H]([C@@H]1CCCN1c1cc(-n2ccnc2)c2ccc(Cl)c(Cl)c2n1)C(F)(F)F` [I-722] were below 2000 nM and 2000 to 10000 nM.
For `O=C(O)C1CC(OC[C@@H]2CCCN2c2cc(-n3ccnc3)c3ccc(Cl)c(Cl)c3n2)C1` (stereo partly drawn) [I-723], the figures for the IC50 in assay [1] and in assay [2] were below 2000 nM and 2000 to 10000 nM, respectively.
Taken in the same sequence, the figures for `O=C(O)CCOC[C@H](O)[C@@H]1CCCN1c1cc(-n2ccnc2)c2ccc(Cl)c(Cl)c2n1` [I-724, 3-((R)-2-((S)-1-(7,8-dichloro-4-(1H-imidazol-1-yl)quinolin-2-yl)pyrrolidin-2-yl)-2-hydroxyethoxy)propanoic acid] were below 2000 nM and 2000 to 10000 nM.
Taken in the same sequence, the figures for `O=C(O)COC[C@@H](O)[C@@H]1CCCN1c1cc(-n2ccnc2)c2ccc(Cl)c(Cl)c2n1` [I-725, 2-((S)-2-((S)-1-(7,8-dichloro-4-(1H-imidazol-1-yl)quinolin-2-yl)pyrrolidin-2-yl)-2-hydroxyethoxy)acetic acid] were below 2000 nM and above 10000 nM.
For `O=C(O)COC[C@H](O)[C@@H]1CCCN1c1cc(-n2ccnc2)c2ccc(Cl)c(Cl)c2n1` [I-726, 2-((R)-2-((S)-1-(7,8-dichloro-4-(1H-imidazol-1-yl)quinolin-2-yl)pyrrolidin-2-yl)-2-hydroxyethoxy)acetic acid], the IC50 in assay [1] is below 2000 nM; in assay [2] it was above 10000 nM.
In the same order, the values of `O=C(O)c1cnn(C[C@@H]2CCCN2c2cc(-n3ccnc3)c3ccc(Cl)c(Cl)c3n2)c1` [I-728] are below 2000 nM and 2000 to 10000 nM.
Taken in the same sequence, the figures for `O=C(O)c1cnn(CC[C@@H]2CCCN2c2cc(-n3ccnc3)c3ccc(Cl)c(Cl)c3n2)c1` [I-730] were below 2000 nM and 2000 to 10000 nM.

The IC50 is the concentration at which inhibition is half-maximal.
